Key:
[1] = target: Neuronal acetylcholine receptor; alpha3/beta4 (Rattus norvegicus, UniProt P04757+P12392); assay: Displacement of [3H]epibatadine from rat alpha3beta4 nAChR expressed in HEK293 cells by scintillation counting analysis; format: cell-based
[2] = target: Neuronal acetylcholine receptor; alpha4/beta2 (Rattus norvegicus, UniProt P09483+P12390); assay: Displacement of [3H]epibatadine from rat alpha4beta2 nAChR expressed in HEK293 cells by scintillation counting analysis; format: cell-based
[3] = target: Neuronal acetylcholine receptor subunit alpha-7 (Rattus norvegicus, UniProt Q05941); assay: Displacement of [3H]epibatadine from rat alpha7 nAChR expressed in HEK293 cells by scintillation counting analysis; format: cell-based
[4] = Displacement of [3H]epibatadine from rat forebrain nAChR expressed in HEK293 cells by scintillation counting analysis; format: cell-based
[5] = species: Rattus norvegicus; assay: Selectivity ratio of Ki for rat alpha3beta4 nAChR to Ki for rat alpha4beta2 nAChR

Chain of Neuronal acetylcholine receptor subunit alpha-7 (Q05941 whole entry): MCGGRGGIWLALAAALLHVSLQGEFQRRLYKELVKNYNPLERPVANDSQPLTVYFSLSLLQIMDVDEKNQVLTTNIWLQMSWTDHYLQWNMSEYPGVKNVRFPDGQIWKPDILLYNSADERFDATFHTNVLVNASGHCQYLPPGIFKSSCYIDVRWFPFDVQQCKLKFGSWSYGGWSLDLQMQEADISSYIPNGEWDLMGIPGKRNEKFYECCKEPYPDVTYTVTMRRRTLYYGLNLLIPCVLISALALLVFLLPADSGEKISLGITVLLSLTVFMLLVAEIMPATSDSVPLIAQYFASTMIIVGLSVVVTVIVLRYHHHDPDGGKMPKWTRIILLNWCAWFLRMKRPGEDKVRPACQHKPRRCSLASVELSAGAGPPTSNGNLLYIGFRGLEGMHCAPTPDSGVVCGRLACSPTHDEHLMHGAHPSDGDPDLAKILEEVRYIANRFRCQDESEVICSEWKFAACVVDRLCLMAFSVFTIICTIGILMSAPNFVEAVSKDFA
Chain of Neuronal acetylcholine receptor; alpha4/beta2 (P09483 whole entry): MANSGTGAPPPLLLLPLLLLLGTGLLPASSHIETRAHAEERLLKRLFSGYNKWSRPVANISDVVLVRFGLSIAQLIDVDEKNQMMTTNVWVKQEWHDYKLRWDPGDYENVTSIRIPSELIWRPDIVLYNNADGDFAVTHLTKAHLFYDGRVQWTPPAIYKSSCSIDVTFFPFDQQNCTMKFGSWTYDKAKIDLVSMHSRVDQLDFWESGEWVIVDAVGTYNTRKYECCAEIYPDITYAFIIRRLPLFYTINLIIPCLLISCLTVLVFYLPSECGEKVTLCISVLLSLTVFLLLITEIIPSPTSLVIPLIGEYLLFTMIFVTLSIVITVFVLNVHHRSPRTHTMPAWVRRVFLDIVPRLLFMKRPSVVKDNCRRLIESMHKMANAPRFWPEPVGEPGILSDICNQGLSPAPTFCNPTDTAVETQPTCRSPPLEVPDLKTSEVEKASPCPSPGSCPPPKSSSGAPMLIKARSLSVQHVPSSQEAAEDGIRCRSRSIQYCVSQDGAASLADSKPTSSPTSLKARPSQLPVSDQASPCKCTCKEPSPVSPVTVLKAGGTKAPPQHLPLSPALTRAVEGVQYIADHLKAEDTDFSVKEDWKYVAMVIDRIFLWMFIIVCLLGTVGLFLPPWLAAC
Chain of Neuronal acetylcholine receptor; alpha4/beta2 (P12390 whole entry): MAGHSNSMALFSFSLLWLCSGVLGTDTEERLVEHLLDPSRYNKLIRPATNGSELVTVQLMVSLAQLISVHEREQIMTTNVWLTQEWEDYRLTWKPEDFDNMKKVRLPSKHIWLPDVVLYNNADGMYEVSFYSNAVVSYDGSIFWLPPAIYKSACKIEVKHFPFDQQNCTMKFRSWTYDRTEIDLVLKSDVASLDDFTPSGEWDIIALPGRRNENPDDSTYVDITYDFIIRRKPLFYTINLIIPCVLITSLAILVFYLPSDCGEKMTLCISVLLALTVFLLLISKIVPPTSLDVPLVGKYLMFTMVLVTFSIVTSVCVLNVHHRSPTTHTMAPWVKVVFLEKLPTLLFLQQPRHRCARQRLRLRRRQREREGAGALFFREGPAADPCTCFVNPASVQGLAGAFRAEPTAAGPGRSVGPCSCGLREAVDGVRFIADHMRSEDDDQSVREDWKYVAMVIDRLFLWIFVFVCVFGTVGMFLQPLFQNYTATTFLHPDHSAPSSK
Chain of Neuronal acetylcholine receptor; alpha3/beta4 (P04757 whole entry): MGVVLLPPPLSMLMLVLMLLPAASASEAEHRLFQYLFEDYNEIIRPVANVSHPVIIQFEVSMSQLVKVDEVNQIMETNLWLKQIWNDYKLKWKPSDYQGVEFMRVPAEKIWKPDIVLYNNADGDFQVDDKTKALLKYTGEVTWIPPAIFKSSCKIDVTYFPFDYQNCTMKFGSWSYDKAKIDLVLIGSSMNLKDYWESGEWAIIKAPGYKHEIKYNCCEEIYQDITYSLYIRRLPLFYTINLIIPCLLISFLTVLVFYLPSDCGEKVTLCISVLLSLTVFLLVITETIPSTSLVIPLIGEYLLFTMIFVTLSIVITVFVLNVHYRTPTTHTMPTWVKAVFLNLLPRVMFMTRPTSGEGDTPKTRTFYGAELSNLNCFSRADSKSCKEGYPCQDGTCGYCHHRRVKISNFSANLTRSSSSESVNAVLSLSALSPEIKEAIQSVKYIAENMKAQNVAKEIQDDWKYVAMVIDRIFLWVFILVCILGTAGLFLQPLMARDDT
Chain of Neuronal acetylcholine receptor; alpha3/beta4 (P12392 whole entry): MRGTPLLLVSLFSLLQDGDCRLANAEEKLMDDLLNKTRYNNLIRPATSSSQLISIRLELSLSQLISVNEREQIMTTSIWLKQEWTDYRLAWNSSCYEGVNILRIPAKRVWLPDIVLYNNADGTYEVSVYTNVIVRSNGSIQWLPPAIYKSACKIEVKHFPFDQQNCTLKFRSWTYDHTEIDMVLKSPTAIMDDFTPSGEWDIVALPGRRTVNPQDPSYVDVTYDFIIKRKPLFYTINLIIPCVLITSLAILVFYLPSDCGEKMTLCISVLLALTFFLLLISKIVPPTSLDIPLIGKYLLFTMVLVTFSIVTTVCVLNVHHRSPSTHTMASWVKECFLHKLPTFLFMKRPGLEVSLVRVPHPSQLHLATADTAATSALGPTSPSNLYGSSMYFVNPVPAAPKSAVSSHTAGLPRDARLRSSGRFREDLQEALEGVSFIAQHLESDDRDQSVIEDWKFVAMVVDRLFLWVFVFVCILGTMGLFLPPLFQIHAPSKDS

SMILES | Ki [1] [µM] | Ki [2] [nM] | Ki [3] [µM] | Ki [4] [nM] | Ratio Ki [5]
OCCCCc1cn(-c2cncc(OC[C@@H]3CCN3)c2)nn1 | 77 | 1.3 | 100 | 8 | 59000
c1ncc(-c2nnn3c2CCCC3)cc1OC[C@@H]1CCN1 | 64 | 10 | 51 | 48 | 6200
CCCCC#Cc1cncc(OC[C@H]2CCN2)c1 | 5.2 | 0.5 | 13 | 0.92 | 10000
CCCCC#Cc1cncc(OC[C@@H]2CCCN2)c1 | 18 | 1.2 | 35 | 5.8 | 15000
[N-]=[N+]=NCCCCC#Cc1cncc(OC[C@@H]2CCN2)c1 | 3.4 | 0.086 | 2.7 | 0.36 | 40000
CCCCC#Cc1cncc(OC[C@@H]2CCN2)c1 | 1.7 | 0.1 | 1.9 | 0.29 | 17000
CCCCC#Cc1cncc(OC[C@H]2CCCN2)c1 | 12 | 0.49 | 9.1 | 7.7 | 24000
